Experimental data from the supplement of paper PMC11061612.

What was measured:
Test in all cases: combination Emax (second highest fraction inhibited in the dose matrix, 72 h); higher = more inhibition; extreme values may be limits of the assay
[1] = system: 697 (B-Lymphoblastic Leukemia)
How it was run: (§1)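 Bliss excess equals the observed combination effect minus the expected value EA + EB − EA·EB, where EA and EB are the effects of each agent alone. Combination Emax is the second-highest inhibition within the matrix. Inhibition was scaled from CellTiter-Glo 2.0 luminescence, with 0 set by vehicle wells and 1 by blank wells, after 72 hours of two-drug dosing of cells plated in 1536-well plates.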

[2] = system: C3A (Hepatocellular Carcinoma)
How it was run: as §1

[3] = system: CTV-1 (T-Lymphoblastic Leukemia)
How it was run: as §1

[4] = system: DB (B-Cell Non-Hodgkin's Lymphoma)
How it was run: as §1

[5] = system: DMS-273 (Small Cell Lung Carcinoma)
How it was run: as §1

[6] = system: EM-2 (Chronic Myelogenous Leukemia)
How it was run: as §1

ES7 (Ewing's Sarcoma) = system: ES7 (Ewing's Sarcoma)
How it was run: as §1

[7] = system: G-292-Clone-A141B1 (Osteosarcoma)
How it was run: as §1

[8] = system: HT-29 (Colorectal Carcinoma)
How it was run: as §1

J82 (Bladder Carcinoma) = system: J82 (Bladder Carcinoma)
How it was run: as §1

[9] = system: JiyoyeP-2003 (Burkitt's Lymphoma)
How it was run: as §1

[10] = system: KATOIII (Gastric Carcinoma)
How it was run: as §1

[11] = system: LU-99A (Non-Small Cell Lung Carcinoma)
How it was run: as §1

[12] = system: NCI-H1694 (Small Cell Lung Carcinoma)
How it was run: as §1

[13] = system: NCI-H1781 (Lung Adenocarcinoma)
How it was run: as §1

[14] = system: NCI-H1793 (Lung Adenocarcinoma)
How it was run: as §1

RH-1 (Ewing's Sarcoma) = system: RH-1 (Ewing's Sarcoma)
How it was run: as §1

[15] = system: SW1783 (Low Grade Glioma)
How it was run: as §1

[16] = system: TE-5 (Esophageal Squamous Cell Carcinoma)
How it was run: as §1

[17] = system: COR-L23 (Non-Small Cell Lung Carcinoma)
How it was run: as §1

Row | SMILES | combination Emax [1] | combination Emax [2] | combination Emax [3] | combination Emax [4] | combination Emax [5] | combination Emax [6] | combination Emax (ES7 (Ewing's Sarcoma)) | combination Emax [7] | combination Emax [8] | combination Emax (J82 (Bladder Carcinoma)) | combination Emax [9] | combination Emax [10] | combination Emax [11] | combination Emax [12] | combination Emax [13] | combination Emax [14] | combination Emax (RH-1 (Ewing's Sarcoma)) | combination Emax [15] | combination Emax [16] | combination Emax [17]
1 | Cc1c2c(nn1C)CSCc1cc(n(C)n1)CSc1cc(c3ccccc3c1)OCCCc1c(C(=O)O)n(C)c3c-2c(Cl)ccc13 [AZD5991] + CN(C)CCCOc1ccc(-c2ccc3ncc4c(c3c2)n(C2CCOCC2)c(=O)n4C)cn1 [AZD0156] (first compound max 1 µM, 7x7, partner max 1 µM) | 1 | 0.198 | 0.301 | 0.974 | 0.976 | 0.394 | 0.726 | 0.332 | 0.254 | 0.22 | 0.756 | 0.182 | 0.334 | 0.98 | 0.665 | 0.302 | 0.666 | 0.218 | 0.266 | 
2 | CC(=O)c1c(C)c2cnc(Nc3ccc(N4CCNCC4)cn3)nc2n(C2CCCC2)c1=O [Palbociclib] + CN(CC[C@H](CSC1=CC=CC=C1)NC2=C(C=C(C=C2)S(=O)(=O)NC(=O)C3=CC=C(C=C3)N4CCC(CC4)[C@H](C5=CC=CC=C5C6=CC=C(C=C6)Cl)O)S(=O)(=O)C(F)(F)F)CCO [AZD4320] (first compound max 10 µM, 7x7, partner max 1 µM) | 1 | 0.639 | 0.94 |  | 0.306 | 0.95 |  |  | 0.498 | 0.22 | 0.795 |  | 0.297 | 0.941 | 0.476 | 0.337 | 0.684 |  |  | 0.298
3 | CCc1c2c(nc3ccc(O)cc13)-c1cc3c(c(=O)n1C2)COC(=O)[C@]3(O)CC [SN-38] + O=C(c1cc(Cc2n[nH]c(=O)c3ccccc23)ccc1F)N1CCN(C(=O)C2CC2)CC1 [Olaparib] (first compound max 0.3 µM, 7x7, partner max 10 µM) | 1 | 0.665 | 1 | 0.96 | 0.799 | 1 | 1 | 0.179 | 0.936 | 0.861 | 0.947 | 0.252 | 0.649 |  | 1 |  | 1 | 0.862 | 0.758 | 0.675
4 | C[C@@H](c1ccc2nccn2c1)n1nnc2ncc(-c3cnn(C)c3)nc21 [Savolitinib] + CN(CC[C@H](CSC1=CC=CC=C1)NC2=C(C=C(C=C2)S(=O)(=O)NC(=O)C3=CC=C(C=C3)N4CCC(CC4)[C@H](C5=CC=CC=C5C6=CC=C(C=C6)Cl)O)S(=O)(=O)C(F)(F)F)CCO [AZD4320] (first compound max 1 µM, 7x7, partner max 1 µM) | 1 | 0.183 | 0.455 |  | 0.185 | 0.971 |  |  | 0.172 | 0.604 | 0.439 |  | 0.245 | 0.622 | 0.287 | 0.168 | 0.488 |  |  | 0.184
